The subject of experiment [1] is Ba/F3 ETV6-NTRK2-G639R. Nature of the experiment: Cell proliferation inhibition (CellTiter-Glo), Ba/F3 ETV6-NTRK2-G639R. Format: cell-based. As to conditions: Mus musculus, BaF3, 72 h, 72 hrs, read-out: IC50 proliferation Ba/F3 ETV6-NTRK2-G639R. The protocol:
4. Inhibitory Effect of Compounds on the Proliferation of TRK Fusion and Mutant Stable Cell Lines (IC50)
Six cell lines including Ba/F3 LMNA-NTRK1-WT, Ba/F3 LMNA-NTRK1-G595R, Ba/F3 ETV6-NTRK2-WT, Ba/F3 ETV6-NTRK2-G639R, Ba/F3 ETV6-NTRK2-G639R and Ba/F3 ETV6-NTRK3-G623R were used in this experiment. For the six cell lines, the maximum test concentration of the compound was 1 μM, 1 μM, 10 μM, […], 1 μM and 10 μM, were 3.16-fold gradient diluted to obtain 9 samples.
The operation is described briefly as follows:
The cells in logarithmic growth phase were harvested to ensure that the cell viability was above 90%. 3000 cell/well were seeded in 96-well plate (Corning, Cat #3603). The cells were incubated overnight with 5% CO2, 95% humidity at 37° C. Then each well containing the cells of the 96-well plate was added the compound solutions, 3 wells for each compound solution, and continued to incubate for another 72 hrs. Then CellTiter-Glo® kit (Promega, Cat #G7572) was used to do the detection. First, the CTG reagent was melted and the cell plate was balanced to room temperature. The same volume of CTG solution was added into each well and vibrated on the shaker for 5 minutes to lyse the cells. The cell plate was kept at room temperature for 20 minutes to stabilize the luminescent signal. The luminescent value was collected by SpectraMax microplate detector (MD, 2104-0010A). […] Cell survival rate (%)=(1umdrug−1ummedium)/(1umcell−lummedium)×100%
(Cellular ATP, detected with luciferase, serves as a proxy for viable cell number.)

Experiment [2] deals with ALK-L1196M (Homo sapiens (Human), UniProt Q9UM73, L1196M). Briefly: HTRF kinase activity assay, ALK-L1196M. As to conditions: 30 μM ATP. Format: biochemical. The protocol:
(§1) The IC50 values of the compounds were calculated using XLFIT5 (IDBS) software.
Background: In TR-FRET formats the signal depends on donor and acceptor labels being close together.

Experiment [3] deals with TRKB (Homo sapiens (Human), UniProt Q16620). Nature of the experiment: Mobility shift assay, TRKB kinase. As to conditions: read-out: TRKB IC50, ATP 71.2 μM.
TRKB, sequence (Q16620 32-822): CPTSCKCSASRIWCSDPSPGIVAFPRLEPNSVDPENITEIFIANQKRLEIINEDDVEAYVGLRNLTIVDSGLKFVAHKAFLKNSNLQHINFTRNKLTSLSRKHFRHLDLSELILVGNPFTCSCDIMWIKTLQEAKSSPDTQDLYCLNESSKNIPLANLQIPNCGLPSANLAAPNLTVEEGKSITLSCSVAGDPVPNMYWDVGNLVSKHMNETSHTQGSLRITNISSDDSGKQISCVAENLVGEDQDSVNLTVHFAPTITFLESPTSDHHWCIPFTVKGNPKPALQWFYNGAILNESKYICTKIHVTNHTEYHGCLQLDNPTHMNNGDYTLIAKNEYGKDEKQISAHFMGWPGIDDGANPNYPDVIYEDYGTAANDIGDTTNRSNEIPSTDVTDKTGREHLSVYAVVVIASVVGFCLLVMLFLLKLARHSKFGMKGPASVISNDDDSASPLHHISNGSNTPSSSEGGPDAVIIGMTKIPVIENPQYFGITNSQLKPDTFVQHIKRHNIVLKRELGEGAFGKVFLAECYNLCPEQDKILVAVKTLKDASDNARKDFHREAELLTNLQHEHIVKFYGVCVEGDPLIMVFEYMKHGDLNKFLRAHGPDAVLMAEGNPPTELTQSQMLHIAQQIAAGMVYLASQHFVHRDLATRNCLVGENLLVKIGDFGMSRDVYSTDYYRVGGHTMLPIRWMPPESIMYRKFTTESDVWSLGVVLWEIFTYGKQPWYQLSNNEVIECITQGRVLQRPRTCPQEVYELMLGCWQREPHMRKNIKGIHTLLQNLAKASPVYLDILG
Protocol: (§2) The inhibitory activity of compounds on TRKA, TRKB, TRKC and ROS1 kinase was analyzed with Mobility shift assay. The screening platform is MSA based microfluidic chip technology, which applies the basic concept of capillary electrophoresis to microfluidic environment. The substrate used in the experiment is a poly-peptide labeled with fluorescent. Under the catalysis of enzyme in the reaction system, the substrate is transformed into a product, with the charge changed accordingly. MSA technology could detect the substrate and the product with different charge separately.
(§3) The compound powder was dissolved in 100% DMSO (Sigma, Cat. D8418-1l) to prepare a 10 mM storage solution. […] The reaction was carried out at room temperature for 30 min/40 min/20 min/20 min respectively. After the reaction was terminated, the conversion rate was read by Caliper EZ Reader II.
(§4) Conversion %_Min: mean value of negative control, representing the conversion rate without enzyme activity;
(§5) Conversion %_Max: mean value of positive control, which represents the conversion rate reading without compound inhibition.
(§6) Taking the log value of concentration as X axis and the percentage inhibition rate as Y axis, the dose response curve was fitted by the analysis software GraphPad Prism 5, thus the IC50 value of each compound on enzyme activity inhibition was obtained.
Experiment [4] has as its target T1, TRKA (Homo sapiens (Human), UniProt P04629). Briefly: HTRF kinase activity assay, TRKA. The class given is biochemical. Conditions: 90 μM ATP. The protocol:
as §1

Experiment [5] concerns the target T1, TRKA. Nature of the experiment: Mobility shift assay, TRKA kinase. The class given is biochemical. As to conditions: ATP 47.8 μM. From the text: The operation is described as follows:
Conversion %_Sample: conversion rate of sample;

For experiment [6], the target named is TRKC (Homo sapiens (Human), UniProt Q16288). Briefly: Mobility shift assay, TRKC kinase. Conditions: read-out: TRKC IC50, ATP 44.4 μM.
TRKC, sequence (Q16288 other isoform, or with tags, fused parts or gaps isoform Q16288-3): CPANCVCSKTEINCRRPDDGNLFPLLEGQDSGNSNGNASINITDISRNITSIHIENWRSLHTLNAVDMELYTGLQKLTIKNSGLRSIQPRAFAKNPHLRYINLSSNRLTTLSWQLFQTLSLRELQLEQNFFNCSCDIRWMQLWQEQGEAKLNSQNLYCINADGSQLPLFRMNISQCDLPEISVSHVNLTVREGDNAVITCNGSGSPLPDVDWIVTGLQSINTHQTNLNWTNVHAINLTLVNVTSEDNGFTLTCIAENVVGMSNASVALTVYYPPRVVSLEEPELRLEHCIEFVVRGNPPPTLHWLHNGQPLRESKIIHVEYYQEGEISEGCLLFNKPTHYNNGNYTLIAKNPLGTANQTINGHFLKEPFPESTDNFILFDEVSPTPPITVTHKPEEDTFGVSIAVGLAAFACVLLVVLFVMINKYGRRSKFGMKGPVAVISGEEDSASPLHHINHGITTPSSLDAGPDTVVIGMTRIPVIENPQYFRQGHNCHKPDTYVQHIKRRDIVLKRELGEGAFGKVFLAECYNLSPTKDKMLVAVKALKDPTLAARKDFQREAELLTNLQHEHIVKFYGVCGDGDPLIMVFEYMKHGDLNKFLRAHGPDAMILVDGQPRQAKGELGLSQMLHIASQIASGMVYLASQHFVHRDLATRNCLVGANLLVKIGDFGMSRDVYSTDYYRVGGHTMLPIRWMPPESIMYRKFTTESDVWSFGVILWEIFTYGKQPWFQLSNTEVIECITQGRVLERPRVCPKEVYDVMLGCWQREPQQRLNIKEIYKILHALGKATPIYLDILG
Protocol: as §2, §3, §4, §5, §6
For experiment [7], the system named is Ba/F3 LMNA-NTRK3-G623R. Nature of the experiment: Cell proliferation inhibition (CellTiter-Glo), Ba/F3 LMNA-NTRK3-G623R. Format: cell-based. Conditions: Mus musculus, BaF3, 72 h, 72 hrs, read-out: IC50 proliferation Ba/F3 LMNA-NTRK3-G623R.
In experiment [8] the test system is H1975 (L858R and T790M double mutation) cells. Briefly: Analysis of synergistic effect with EGFR inhibitor (Chou-Talalay), H1975 proliferation. Format: cell-based. Conditions: combination with AZD9291, H1975 cells, 72 hr, Chou-Talalay index method. The protocol: 5. Analysis of Synergistic Effect
H1975 (L858R and T790M double mutation) cells were cultured in RPMI-1640 medium containing 10% FBS and 1% P/S ([…]). In the testing of the compounds, H1975 cells were seeded in 96-well plate (Corning, Cat #3917) at 3000 cell/well and the compounds were added at 195 μL solution/well. The initial test concentration of the compound was 10 μM, 3-fold gradient diluted to obtain 11 samples. 4 μL of each sample was added to 96 μL RPMI-1640 medium to dilute the 25× Compound. 5 μL was added to 195 μL cell medium (the final concentration of DMSO is 0.1%, v/v). After 72 hr incubation, 35 μL of CellTiter-Blue® (Promega, Cat #G8082) was added to the cells. The fluorescence signal was measured with FlexStation 3 (Molecular Devices) according to the instructions, and the IC50 value of the compound on cell proliferation inhibition was calculated by Graphpad Grism 5.0 software. The Chou-Talalay index method was used to analyze the effect of the combination. 0.9≤Combination Index (CI)≤1.1 means additive effect, 0.8≤CI<0.9 means low synergistic effect, 0.6≤CI<0.8 means medium synergistic effect, 0.4≤CI<0.6 means high synergistic effect, 0.2≤CI<0.4 means strong synergistic effect.

Like-named read-outs stand apart in the source and are kept apart here.

T1 sequence (P04629 33-796): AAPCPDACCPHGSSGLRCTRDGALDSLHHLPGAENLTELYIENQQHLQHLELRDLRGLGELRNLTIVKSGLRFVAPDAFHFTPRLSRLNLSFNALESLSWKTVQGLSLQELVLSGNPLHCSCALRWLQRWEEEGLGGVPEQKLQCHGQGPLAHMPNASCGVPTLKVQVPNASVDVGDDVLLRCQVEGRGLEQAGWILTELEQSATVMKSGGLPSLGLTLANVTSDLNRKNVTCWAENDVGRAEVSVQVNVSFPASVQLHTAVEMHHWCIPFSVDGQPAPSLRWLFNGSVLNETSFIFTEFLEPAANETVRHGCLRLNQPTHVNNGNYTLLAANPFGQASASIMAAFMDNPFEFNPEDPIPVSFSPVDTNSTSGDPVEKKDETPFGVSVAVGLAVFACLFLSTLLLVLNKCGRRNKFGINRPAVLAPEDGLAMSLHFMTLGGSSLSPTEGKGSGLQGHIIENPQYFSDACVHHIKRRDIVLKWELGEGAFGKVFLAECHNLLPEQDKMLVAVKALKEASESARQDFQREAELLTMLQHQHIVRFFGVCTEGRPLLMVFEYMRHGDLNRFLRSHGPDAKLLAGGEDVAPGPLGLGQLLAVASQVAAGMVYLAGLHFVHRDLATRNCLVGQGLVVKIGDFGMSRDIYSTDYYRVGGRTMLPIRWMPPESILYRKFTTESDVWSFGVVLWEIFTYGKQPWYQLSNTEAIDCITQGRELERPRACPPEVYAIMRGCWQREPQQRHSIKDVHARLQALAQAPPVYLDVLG
ALK-L1196M, sequence (Q9UM73 19-1620 L1196M): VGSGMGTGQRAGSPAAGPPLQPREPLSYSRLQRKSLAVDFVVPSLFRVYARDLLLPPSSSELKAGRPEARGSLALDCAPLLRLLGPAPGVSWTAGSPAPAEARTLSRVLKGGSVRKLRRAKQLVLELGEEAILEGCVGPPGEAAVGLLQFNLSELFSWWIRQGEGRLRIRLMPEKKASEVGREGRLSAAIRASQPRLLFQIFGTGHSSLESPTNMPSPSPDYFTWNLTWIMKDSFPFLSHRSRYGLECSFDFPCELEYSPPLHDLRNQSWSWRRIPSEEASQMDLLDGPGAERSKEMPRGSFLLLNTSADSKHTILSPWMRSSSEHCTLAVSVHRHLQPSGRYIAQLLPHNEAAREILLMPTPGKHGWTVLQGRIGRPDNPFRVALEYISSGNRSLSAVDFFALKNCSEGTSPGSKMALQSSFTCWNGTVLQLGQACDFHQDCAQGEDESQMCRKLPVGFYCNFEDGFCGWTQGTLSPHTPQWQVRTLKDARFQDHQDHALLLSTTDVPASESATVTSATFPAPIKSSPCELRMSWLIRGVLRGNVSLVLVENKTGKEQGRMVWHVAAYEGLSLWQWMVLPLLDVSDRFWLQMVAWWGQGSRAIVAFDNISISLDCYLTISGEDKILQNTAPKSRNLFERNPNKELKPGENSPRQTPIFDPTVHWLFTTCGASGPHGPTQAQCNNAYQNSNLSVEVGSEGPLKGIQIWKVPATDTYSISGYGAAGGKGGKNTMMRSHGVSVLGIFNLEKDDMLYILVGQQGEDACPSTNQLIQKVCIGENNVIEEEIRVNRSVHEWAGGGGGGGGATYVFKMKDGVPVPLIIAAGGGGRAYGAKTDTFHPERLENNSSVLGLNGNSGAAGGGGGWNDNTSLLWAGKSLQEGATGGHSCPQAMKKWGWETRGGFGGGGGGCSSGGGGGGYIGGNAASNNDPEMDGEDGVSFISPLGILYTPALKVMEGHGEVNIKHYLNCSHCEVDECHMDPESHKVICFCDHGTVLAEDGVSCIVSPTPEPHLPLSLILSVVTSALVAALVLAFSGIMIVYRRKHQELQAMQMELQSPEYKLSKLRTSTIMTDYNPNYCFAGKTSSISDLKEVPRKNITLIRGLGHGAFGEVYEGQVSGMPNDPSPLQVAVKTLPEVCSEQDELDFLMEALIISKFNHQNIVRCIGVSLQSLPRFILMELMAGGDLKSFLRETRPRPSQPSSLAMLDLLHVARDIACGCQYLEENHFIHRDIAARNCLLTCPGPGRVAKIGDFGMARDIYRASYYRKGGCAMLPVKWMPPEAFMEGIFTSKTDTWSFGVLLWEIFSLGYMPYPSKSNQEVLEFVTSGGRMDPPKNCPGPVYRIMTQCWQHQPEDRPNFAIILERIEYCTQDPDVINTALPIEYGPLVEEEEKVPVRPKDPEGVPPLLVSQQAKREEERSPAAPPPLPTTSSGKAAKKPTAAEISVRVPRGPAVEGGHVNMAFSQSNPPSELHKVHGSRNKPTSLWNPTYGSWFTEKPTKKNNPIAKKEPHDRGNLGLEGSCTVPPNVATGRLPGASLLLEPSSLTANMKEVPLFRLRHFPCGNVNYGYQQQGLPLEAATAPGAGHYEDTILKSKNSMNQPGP

With `C[C@H]1COC(=O)c2cnn3ccc(nc23)N[C@H](C)c2cc(F)ccc2O1` [Example 1, (1^3E,1^4E,3R,6S)-4^5-fluoro-3,6-dimethyl-5,8-dioxa-2-aza-1(5,3)-pyrazolo[1,5-a]pyrimidina-4(1,2)-benzenacyclononaphan-9-one], the IC50 in experiment [1] (test batch marked #) came to 64.6 nM; in experiment [1] (test batch marked *), 100 nM; in experiment [2] it was 50 nM; in experiment [3] it was 0.5 nM; in experiment [4] it was 0.13 nM; in experiment [5], 0.42 nM. The IC50 in experiment [6] was found to be 0.61 nM; in experiment [7] (test batch marked #) it was 8.34 nM; in experiment [7] (test batch marked *), 8.4 nM. Also, the “Combination Index (CI)” value in experiment [8] is listed as 0.53-0.67.
